How the values were obtained:
[1] = tested on: C-Kit and Akt-eNOS; assay: Intracellular signaling pathway of vascular endothelial cells with SCF (Western blotting); format: cell-based; details: SCF 20 ng/ml, cells harvested over time, FIG. 1C
Procedure: Vascular endothelial cells were loaded in 60 mm plate, followed by culture for 24 hours. The medium was replaced with the endothelical basal medium supplemented with 1% FBS, followed by further culture for 6 hours. SCF (20 ng/ml) was treated thereto and the cells were harvested over the time, followed by Western blotting.

[2] = tested on: C57/BL mouse; assay: Vascular permeability in mouse subcutaneous tissue (Evans blue dye, back skin, OD620); format: in vivo; details: SCF injected intradermally; skin collected after 20 minutes; FIG. 3A, 3B
Procedure: Evans blue dye […] was injected intravenously in the tail of C57/BL mouse. 10 minutes later, SCF and SCF receptor inhibiting antibody (anti-cKit IgG: Monoclonal anti-SCF receptor neutralization antibody: R&D Systems, Minneapolis, Minn., USA) were injected intradermally on the back of the mouse. 20 minutes later, the back skin of the mouse was collected. The region where Evans blue dye was penetrated through tissues was photographed. The skin was fixed in formamide, which stood at room temperature for 4 days. Then, OD620 was measured by using a spectrophotometer.

[3] = tested on: NO (nitric oxide) in vascular endothelial cells; assay: Generation of NO in vascular endothelial cells induced by SCF; format: cell-based; details: SCF 20 ng/ml; culture supernatant collected over time; FIG. 2A
Procedure: Vascular endothelial cells were cultured in 12 well plate for 24 hours. The medium was replaced with the endothelial basal medium supplemented with 1% FBS, which was then treated with SCF (20 ng/ml). The culture fluid was collected over the time, followed by centrifugation. The level of NO (nitric oxide) in the supernatant was measured (Total No/Nitrite/Nitrate Assay Kit).

[4] = tested on: vascular endothelial cells; assay: eNOS dependent increase of vascular endothelial cell permeability by SCF (L-NAME, transwell); format: cell-based; details: SCF 20 ng/ml for 1 hour; FIG. 2B
Procedure: Vascular endothelial cells were loaded in the upper chamber of 12 well transwell filter (Corning Costar), followed by culture for 48 hours. The medium was replaced with the endothelical basal medium supplemented with 1% FBS, followed by further culture for 3 hours. L-NAME, the eNOS inhibitor, was pretreated (1 mM) to the cells for 30 minutes and then SCF (R&D Systems, Minneapolis, Minn., USA) was treated (20 ng/ml) thereto for 1 hour. FITC-conjugated dextran (fluorescein isothiocyanate-dextran) was also treated (1 mg/ml) thereto. 30 minutes later, the culture fluid was taken from the lower chamber, followed by the measurement with a fluorophotometer.

[5] = tested on: vascular endothelial cells; assay: Vascular endothelial cell permeability with SCF (transwell, FITC-dextran); format: cell-based; details: SCF 10, 20 and 50 ng/ml for 1 hour; FITC-conjugated dextran 1 mg/ml, 30 minutes; FIG. 1A
Procedure: Vascular endothelial cells were loaded in the upper chamber of 12 well transwell filter (Corning Costar), followed by culture for 48 hours. The medium was replaced with the endothelical basal medium supplemented with 1% FBS, followed by further culture for 3 hours. SCF (R&D Systems, Minneapolis, Minn., USA) was treated thereto at different concentrations (10, 20, and 50 ng/ml) for 1 hour, followed by the treatment with FITC-conjugated dextran (fluorescein isothiocyanate-dextran) (1 mg/ml). 30 minutes later, the culture fluid was taken from the lower chamber, followed by the measurement with a fluorophotometer.

[6] = tested on: mouse retinal vessels; assay: Angiography of mouse retinal vessels (FITC-dextran, flat mount); format: in vivo; details: SCF injected in the retina; 24 hours; FIG. 4A, 4B
Procedure: SCF and SCF receptor inhibiting antibody were injected in the retina of C57/BL6 mouse. 24 hours later, the mouse was anesthetized and then intracardiac FITC-dextran injection was performed in order to let the fluorescein flow through blood. 30 minutes later, the retina of the mouse was extracted and observed under a fluorescence microscope after flat mounting.

[7] = tested on: VE-cadherin; assay: VE-cadherin endocytosis of vascular endothelial cells (immunostaining); format: cell-based; details: SCF 20 ng/ml or VEGF 50 ng/ml, 37° C., 30 minutes; for expression of VE-cadherin on the cell surface: FIG. 2C; for endocytosis of VE-cadherin: acid buffer wash, FIG. 2D
Procedure: Vascular endothelial cells were cultured in 8 well chamber slide (Lab-Tek) for 48 hours. The medium was replaced with the endothelical basal medium supplemented with 1% FBS, followed by culture for 16 hours. The cells were treated with VE-cadherin antibody (R&D Systems, Minneapolis, Minn., USA) at 4° C. for 1 hour. SCF (20 ng/ml) and VEGF (50 ng/ml) (R&D Systems, Minneapolis, Minn., USA) were added thereto at 37° C. for 30 minutes to introduce VE-cadherin into the cells. To observe VE-cadherin on the cell surface, fixation was performed with 4% PFA, followed by immunostaining. To observe VE-cadherin in the inside of the cells migrated by SCF and VEGF mediated endocytosis, VE-cadherin on the cell surface was first removed by using an acid buffer (pH 2.7) and then the cells were fixed with 4% PFA, followed by immunostaining. Then, observation under a fluorescence microscope was performed.

[8] = tested on: vascular endothelial cells; assay: C-Kit dependent permeability of vascular endothelial cells with SCF (siRNA, transwell, FITC-dextran); format: cell-based; details: SCF 20 ng/ml; FITC-conjugated dextran; FIG. 1B
Procedure: Vascular endothelial cells were loaded in 60 mm plate. The control siRNA 5′-[…]-3′ (SEQ. ID. NO: 1) and the C-Kit siRNAs 5′-UCAUUCUUGAUGUCUCUGG-3′ (SEQ. ID. NO: 2); 5′-UUUGAGUUCAGACAUGAGG-3′ (SEQ. ID. NO: 3); 5′-UCUUAUAAAGUGCAGCUUC-3′ (SEQ. ID. NO: 4); and 5′-UACAAUGCCAUUCUGAAGC-3′ (SEQ. ID. NO: 5) were introduced in the cells by using lipofectamin. 24 hours later, the endothelial cells were transferred into the upper chamber of 12 well transwell filter (Corning Costar), followed by culture for 24 hours. The medium was replaced with the endothelical basal medium supplemented with 1% FBS, followed by further culture for 3 hours. SCF was treated thereto at the concentration of 20 ng/ml, followed by the treatment with FITC-conjugated dextran (1 mg/ml). 30 minutes later, the culture fluid was taken from the lower chamber, followed by the measurement with a fluorophotometer.

Substance | phosphorylation of C-Kit and Akt-eNOS [1] | vascular permeability of the mouse (Evans blue leakage in back skin) [2] | level of NO [3] | permeability of endothelial cells [4] | permeability of vascular endothelial cells [5] | retinal vessel permeability [6] | expression of VE-cadherin on the cell surface [7] | endocytosis of VE-cadherin [7] | permeability of the endothelial cells [8]
SCF: cytokine binding to C-Kit (CD117); R&D Systems | induced the phosphorylation | increased | increased | increased | increased by the treatment of SCF dose-dependently | increased | reduced | induced | increased
VEGF |  |  |  |  |  |  | decreased | increased | 

Source: US9528112B2, “Composition comprising material for inhibiting SCF or receptor thereof for treating or preventing diseases associated with vascular permeability” (AJOU UNIVERSITY INDUSTRY-ACADEMIC COOPERATION FOUNDATION, priority 2012, dated 2016)
